According to patent US10538564B2, “Peptides having osteoblast growth-promoting activity and use thereof” (PHARMA FOODS INTERNATIONAL CO., LTD., priority 2014, dated 2020):
No end group written: not given here.

How the values were obtained:
[1] = test system: mature female rats (eight months old); experiment: Bone formation-promoting effect in mature rats; assay type: in vivo, rat; settings: No. 1 oral 1, 10 or 100 mg/kg·day, alendronate 300 μg/kg subcutaneous, 20 weeks, vs control group
Protocol: Synthetic peptide No. 1 was administered to mature female rats (eight months old, ten rats in each group) by oral gavage using a gastric tube once a day for 20 weeks. The dose of the synthetic peptide was 1, 10 or 100 mg/kg·day.

[2] = test system: mouse osteoblast-like cell line MC3T3-E1 Subclone-4; experiment: Osteoblast growth-promoting activity (cell counting method); assay type: cell-based; settings: synthetic peptides at 2.5, 5 or 10 μg/mL; 72 hours; relative to PBS (−) group taken as 100; FIGS. 9 to 12
Protocol: A mouse osteoblast-like cell line MC3T3-E1 Subclone-4 (ATCC No. CRL-2593) was cultured in α-MEM medium supplemented with 10% FBS at 5% CO2 and 95% air at 37° C. until confluent. The cells were collected by trypsinization. The collected cells were suspended at 1×10^4 cells/mL in fresh α-MEM medium. One mL of the cell suspension was seeded in each well of a 24-well plate, and precultured at 5% CO2 and 95% air at 37° C. On the next day, the medium was replaced with medium prepared by well mixing 50 μL of a sample or PBS (−) with 950 μL of fresh α-MEM medium supplemented with CaCl2 to a Ca concentration of 500 μg/mL. The cells were further cultured for 72 hours. The growth activity of osteoblasts was measured by the cell counting method. The activity of the sample for promoting the growth of osteoblasts was expressed in terms of the relative value, with the growth rate in the PBS (−) group taken as 100. Osteoblast growth-promoting activity was determined for the synthetic peptides in the same manner as in Example 1. The synthetic peptides were added at 2.5, 5 or 10 μg/mL per well. As a control, PBS (−) was added. The osteoblast growth-promoting activity was expressed in terms of the relative value, with the growth rate in the PBS (−) group taken as 100.

[3] = test system: mouse-derived cell line ATDC5; experiment: Hyaluronic acid production-promoting activity (ELISA of culture supernatant); assay type: cell-based; settings: 10 nmol/mL; supernatant after 48 hours of culture; FIG. 15
Protocol: This study was performed using the mouse-derived cell line ATDC5 as used in Example 4. ATDC5 cells in the logarithmic growth phase were seeded at 2×10^4 cells/mL per well in a 24-well plate containing DMEM/F-12 (1:1) medium supplemented with 5% FCS (fetal calf serum), 10 μg/mL transferrin and 3×10^−8 M sodium selenite. The cells were precultured at 5% CO2 and 95% air at 37° C. On the next day, the medium in each well was removed, and medium containing the synthetic peptide (No. 1 or No. 6) at 10 nmol/mL was added. The cells were cultured for […]. As a control, medium without a synthetic peptide was added. After 48 hours of culture, the culture supernatants were collected, and their hyaluronic acid concentrations were measured using QnE Hyaluronic Acid ELISA Assay (Biotech Trading Partners). The concentrations of hyaluronic acid in the culture supernatants of the synthetic peptide addition group were calculated by subtracting the absorbance of the background from the absorbance of the supernatants, and fitting the resulting values to the reference curve prepared using the standard.

[4] = test system: mouse-derived chondrogenic cell line ATDC5; experiment: Chondrocyte growth-promoting activity (Cell Counting Kit-8); assay type: cell-based; settings: 10 nmol/mL; 72 hours; relative to control taken as 100%; FIG. 14
Protocol: This study was performed using mouse-derived chondrogenic cell line ATDC5 (RIKEN BANK, RBC0565). ATDC5 cells in the logarithmic growth phase were suspended at 3×10^4 cells/mL in Eagle MEM medium supplemented with 5% FCS (fetal calf serum), and 100 μL of the cell suspension was seeded in each well of a 96-well plate and precultured at 5% CO2 and 95% air at 37° C. On the next day, the medium in each well was removed, and medium containing the synthetic peptide (No. 1 or No. 6) at 10 nmol/mL was added. The cells were cultured for 72 hours. As a control, medium without a synthetic peptide was added. The reaction solution ([…]) of Cell Counting Kit-8 (Dojindo Laboratories) was added to each well. The plate was incubated for 3 hours, and the absorbance at 450 nm was measured with a microplate reader. The activity of the synthetic peptides for promoting the growth of chondrocytes was expressed in terms of the relative value, with the absorbance (growth rate) in the control group taken as 100%.

[5] = test system: Crlj:W1 male rats at four weeks old; experiment: Mineral apposition rate in secondary cancellous bone, 7-day oral administration; assay type: in vivo, rat; settings: No. 1 oral 1, 10 or 100 mg/kg-day, hGH 500 μg/kg·day subcutaneous; seven days; FIG. 26
Protocol: One of the synthetic peptides (No. 1) or water for injection (control) was administered to Crlj:W1 male rats at four weeks old by oral gavage using a gastric tube once a day for seven days (n=10 in each group). The dose of the synthetic peptide was 1, 10 or 100 mg/kg-day. As a positive control, human growth hormone (hGH) (Norditropin, Standard Commodity Classification No. of Japan: 872412) was subcutaneously administered at 500 μg/kg·day once a day for seven days. As fluorescent labels for the site of bone formation, tetracycline (20 mg/kg) was subcutaneously administered on day 4 after the administration of the peptide or control, and then calcein (10 mg/kg) was subcutaneously administered on day 6 after the administration of the peptide or control. After the administration of the test sample on day 7, the rats were kept under fasting conditions. Twenty-four hours later, the rats were euthanized by bloodletting under anesthesia, and the tibiae were harvested. Non-decalcified specimens of the proximal tibiae were prepared and photographed under a fluorescent microscope (BX-53, OLYMPUS). The bone morphology was measured using a morphometry system (Histometry RT digitizer, System Supply Co., Ltd.) and an analysis software (CSS-840 cancellous bone morphometry version, System Supply Co., Ltd.). The mineral apposition rate (MAR), per day, in the secondary cancellous bone was determined by measuring the distance between the tetracycline label and the calcein label in the secondary cancellous bone, and dividing the distance by the administration interval between the fluorescent labels (two days). […] The increase in the mineral apposition rate in the secondary cancellous bone in the No. 1 administration group would have resulted from the increase in the number of osteoblasts.

[6] = test system: Crlj:W1 male rats at four weeks old; experiment: Bone formation in growth cartilage and primary cancellous bone, 7-day oral administration; assay type: in vivo, rat; settings: No. 1 oral 100 mg/kg-day, hGH 500 μg/kg-day subcutaneous, seven days
Protocol: One of the synthetic peptides (No. 1) or water for injection (control) was administered to Crlj:W1 male rats at four weeks old by oral gavage using a gastric tube once a day for seven days (n=3 in each group). The dose of the synthetic peptide (No. 1) was 100 mg/kg-day. As a positive control, human growth hormone (hGH) (Norditropin, Standard Commodity Classification No. of Japan: 872412) was subcutaneously administered at 500 μg/kg-day once a day for seven days. As fluorescent labels for the site of bone formation, tetracycline (20 mg/kg) was subcutaneously administered on day 4 after the administration of the peptide or control, and then calcein (10 mg/kg) was subcutaneously administered on day 6 after the administration of the peptide or control. After the administration of the test sample on day 7, the rats were kept under fasting conditions. Twenty-four hours later, the blood was collected. The rats were then euthanized by bloodletting under anesthesia, and the tibiae were harvested (see FIG. 16). Non-decalcified specimens of the proximal tibiae were prepared and photographed under a fluorescent microscope (BX-53, OLYMPUS). The bone morphology was measured using a morphometry system (Histometry RT digitizer, System Supply Co., Ltd.) and an analysis software (CSS-840 cancellous bone morphometry version, System Supply Co., Ltd.). The longitudinal growth rate (Lo.G.R.) in the growth cartilage, which is the increase in the height per day, was determined by measuring the distance between the tetracycline label and the calcein label, and dividing the distance by the administration interval between the fluorescent labels (two days).
The increase in the level of IGF-1, which is related to growth of the bones and muscles in a growth phase, may contribute to the bone growth-promoting effect.

[7] = test system: Crlj:W1 male rats at four weeks old; experiment: Bone formation in growth cartilage and secondary cancellous bone, 21-day oral administration; assay type: in vivo, rat; settings: No. 1 oral 100 mg/kg·day, hGH 500 μg/kg·day subcutaneous; 21 days; FIG. 21
Protocol: One of the synthetic peptides (No. 1) or water for injection (control) was administered to Crlj:W1 male rats at four weeks old by oral gavage using a gastric tube once a day for 21 days (n=3 in each group). The dose of the synthetic peptide was 100 mg/kg·day. As a positive control, human growth hormone (hGH) (Norditropin, Standard Commodity Classification No. of Japan: 872412) was subcutaneously administered at 500 μg/kg·day once a day for 21 days. As fluorescent labels for the site of bone formation, tetracycline (20 mg/kg) was subcutaneously administered on day 18 after the administration of the peptide or control, and then calcein (10 mg/kg) was subcutaneously administered on day 20 after the administration of the peptide or control. After the administration of the test sample on day 21, the rats were kept under fasting conditions. Twenty-four hours later, the rats were euthanized by bloodletting under anesthesia, and the tibiae were harvested (see FIG. 20). Non-decalcified specimens of the proximal tibiae were prepared and photographed under a fluorescent microscope (BX-53, OLYMPUS). The bone morphology was measured using a morphometry system (Histometry RT digitizer, System Supply Co., Ltd.) and an analysis software (CSS-840 cancellous bone morphometry version, System Supply Co., Ltd.). The longitudinal growth rate (Lo.G.R.) in the epiphyseal cartilage, which is the increase in the height per day, was determined by measuring the distance between the tetracycline label and the calcein label, and dividing the distance by the administration interval between the fluorescent labels (two days).

NCCCC(O)(P(=O)(O)O)P(=O)(O)O [alendronate, alendronate sodium hydrate, reference compound] was tested, and the “cancellous bone volume in the proximal tibial metaphysis” value [1] was “significantly increased”.

For DESSPYE [No. 4], the osteoblast growth-promoting activity [2] was “promoted the growth of osteoblasts in a concentration-dependent manner”.

EDESSPYE [No. 5] was tested, and the osteoblast growth-promoting activity [2] was “promoted the growth of osteoblasts in a concentration-dependent manner”.

For Pro-Glu-Ser-Glu-Glu (PESEE) [No. 3], the osteoblast growth-promoting activity [2] was “promoted the growth of osteoblasts in a concentration-dependent manner”.

With VNPESEE [No. 2] the osteoblast growth-promoting activity [2] was “promoted the growth of osteoblasts in a concentration-dependent manner”.

With VNPESEEEDESSPYE [No. 6] the “hyaluronic acid production-promoting activity (hyaluronic acid concentration in culture supernatant)” value [3] was “showed hyaluronic acid production-promoting effect”, the chondrocyte growth-promoting activity [4] was “showed chondrocyte growth-promoting effect” and the osteoblast growth-promoting activity [2] was “promoted the growth of osteoblasts in a concentration-dependent manner”.

With “hGH: human growth hormone (hGH) (Norditropin), positive control, subcutaneously administered [reference compound]” the “mineral apposition rate (MAR) in the secondary cancellous bone, vs control group” value [5] was “significant increase in the mineral apposition rate”, the “serum level of insulin-like growth factor (IGF-1)” value ([6]; ELISA, FIG. 19) was “higher than that in the control group” and the “longitudinal growth rate (Lo.G.R.) in the growth cartilage, vs control group” value ([6]; FIG. 17) was “significant promotion of bone growth as compared with the control group”. The “longitudinal growth rate (Lo.G.R.) in the epiphyseal cartilage, vs control group” value [7] was “significant promotion of bone growth as compared with the control group”.
